Measured values taken from ChEMBL document CHEMBL3507680, “University of Dundee, Gates Library screen for HepG2 cell viability”.

Assay: Human HepG2 cell viability assay in 384 well format
Type: toxicity, cell-based
Parameters: dose 125 nL, time 70.5 hour; concentration not given beside the values
Details: HepG2 cells, read-out: Inhibition

| SMILES | cytotoxicity at 70.5 h [%] |
| --- | --- |
| COc1ccc(F)cc1C(=O)C1CCCN(Cc2cnc(C)s2)C1 (stereo not given) | -11.8 |
| COCc1nc(NCC2CCS(=O)(=O)C2)c2cnn(C)c2n1 (stereo not given) | -7.96 |
| CN(CCO)Cc1cc(Cl)ccc1OCC(O)CN1CCCCCC1 (stereo not given) | -14.1 |
| COc1cccc(-c2cc(C(=O)NCCCC(F)(F)F)[nH]n2)c1 | 30.9 |
| O=C(CN1CCOC(c2ccc(Cl)c(Cl)c2)C1)NCc1ccco1 (stereo not given) | 3.47 |
| CCC(O)Cn1nc(CCSC)nc1-c1ccc2c(c1)OCCO2 (stereo not given) | 15.5 |
| O=C(c1cnc(-c2cccnc2)nc1)N1CCC(c2ccncc2)CC1 | -5.85 |
| CCc1ncc(-c2nccn2-c2cccc(CC(=O)O)c2)cn1 | -11.5 |
| COc1ccc2nc(CNC(=O)c3cc(C(C)C)no3)[nH]c2c1 | 39.1 |
| O=C1N(Cc2ccc(F)c(F)c2)CCCC12CCN(C1CCCCC1)C2 (stereo not given) | 1.47 |
| CCn1c(CC2CCN(C(=O)c3cc(C(C)C)nn3C)CC2)n[nH]c1=O | 2.37 |
| NC(=O)c1cc2c(nc1CC1CCCCO1)CCC2 (stereo not given) | -2.08 |
| O=C(NCc1nncn1C1CCCCC1)C1CNCCO1 (stereo not given) | -6.16 |
| CCc1cn[nH]c1C1CCCN(C(=O)c2cnc(NC(C)C)nc2)C1 (stereo not given) | -5.16 |
| COCC(C)NCc1ccc2[nH]c(C)c(C)c2c1 (stereo not given) | -7.86 |
| Cc1nc(-c2cccnc2)ncc1C(=O)N1CCCC(N(C)C)CC1 (stereo not given) | -20 |
| CCC[C@H]1CN(S(=O)(=O)c2c(C)noc2C)C[C@@H]1N | -3.53 |
| CC(C)Cc1cn(C2CCN(C(C)CCn3cccn3)CC2)nn1 (stereo not given) | -11.6 |
| CO[C@H]1C[C@@H](O)C12CCN(C(=O)NCc1ccco1)CC2 | 17.8 |
| O=C1CCC2(CCCN(C(=O)C3CCCC3)C2)CN1CCc1c[nH]cn1 (stereo not given) | -2.97 |
| O=C(NCc1csc2ccc(Cl)cc12)c1cc2n(n1)CCNC2 | 3.64 |
| O=C(CN1CCCCC1)NCc1cccnc1-n1cnc2ccccc21 | -4.51 |
| CCC(Nc1cccc(OC)c1)C(=O)N(CCO)Cc1nccs1 (stereo not given) | -3.06 |
| NC(=O)c1cc2c(nc1-c1ccc3c(c1)OCCO3)CCC2 | -9.8 |
| Cc1ccc(OCc2occc2C(=O)N2CCCCC(N)C2)cc1 (stereo not given) | -2.2 |
| CN(C)C(=O)CN1C[C@@H]2CC[C@H](C1)N(Cc1ccccc1C#N)C2 | -11 |
| CC(C)Cc1cc(CN2C[C@H]3CC[C@@H]2CN(Cc2cscn2)C3)n[nH]1 | 12.5 |
| CC(C)CC(C)NC1CCN(c2ccc(-c3cscn3)cc2)CC1 (stereo not given) | -15.5 |

| SMILES | cytotoxicity at 70.5 h [%] |
| --- | --- |
| COc1cccc(-n2cc(-c3ccnc(NC(CO)C(C)C)n3)cn2)c1 (stereo not given) | 13.2 |
| CCn1cc(CN2CCC3(CC2)c2ccccc2CC3O)cn1 (stereo not given) | -8.46 |
| CCCc1cc(C(=O)NC(COC)c2ccnn2C)no1 (stereo not given) | 14.9 |
| CN(C)CC1(O)CCN(C(=O)c2cnc(-c3cccnc3)nc2)C1 (stereo not given) | 3.5 |
| O=C(Cn1cccn1)N1CCc2[nH]nc(-c3ccc4c(c3)OCO4)c2C1 | -7.87 |
| O=C(O)[C@@H]1CN(CC(=O)N2CCCCCC2)C[C@H]1c1ccc(F)cc1 | -5.12 |
| Cc1ncc(CO)c(CN2CCCC2c2nc3c(C)cccc3[nH]2)c1O (stereo not given) | -0.268 |
| Cc1cc(C)cc(CN2CCN(Cc3ccc4nonc4c3)CC2=O)c1 | -0.612 |
| O=C(c1ccc(-c2cccc3c2CCNC3)o1)N1CCCCC1 | -3.94 |
| O=C(Cc1ccccc1)C1CCCN(Cc2cncn2C2CCCC2)C1 (stereo not given) | -7.77 |
| Cc1ccc(NC2(C(=O)N3CCn4cncc4C3)CCCCC2)cc1C | -12.1 |
| Cc1ncsc1CCN(C)C(=O)CN1CC2(CCNCC2)OC1=O | 17.2 |
| COc1cccc2c1OCC(C(=O)NCCn1nc(C)c(Cl)c1C)C2 (stereo not given) | -5.88 |
| COc1ccc(N2CCN(C(=O)CCc3n[nH]c(C)n3)CC2=O)cc1 | 15.6 |
| CCc1cnc(C)nc1NCCNc1nc(C)cc(=O)[nH]1 | 0.367 |
| COc1ccccc1Oc1ncccc1CNC(=O)[C@H](N)CC(C)(C)C | -5.62 |
| C[C@@H]1CCC[C@H](C)N1CC(=O)N1CCc2[nH]c(-c3ccccc3)nc2C1 | 27 |
| CCc1nccc(CN2CCC(CNC(=O)[C@H]3CC[C@H](C)CC3)C2)n1 (stereo not given in full) | 27.6 |
| CO[C@@]1(C)C[C@@H](O)C12CCN(C(=O)CCn1c(C)cccc1=O)CC2 | -4.42 |
| Cn1ccnc1-c1cn(CCCc2csc(N)n2)nn1 | -15.7 |
| CCc1cc(N2CCN3CCCCC3C2)n2nccc2n1 (stereo not given) | -8.87 |
| CN1[C@H]2CC[C@@H]1CN(C(=O)c1ccc(-c3ccccc3)[nH]1)CC2 | -2.64 |
| Cc1cnccc1CN1CCN(C)C2(CCC(=O)N(CC3CC3)CC2)C1 (stereo not given) | -1.45 |
| COCCN(C)C[C@@H]1CN(C(=O)c2cccc(Cl)c2)C[C@@H]1CO | -13.7 |
| Cc1cccc2nc(-c3nc4c([nH]3)CCCNC4=O)cn12 | 16 |
| O=C(c1ccc(Cl)cc1)N1CCC2(CC1)C(=O)Nc1ccccc12 | 14.3 |
| O=C(N1CCCC1)N1CCC(Nc2ccncn2)CC1 | -3.32 |
